According to PubChem BioAssay AID1745844 (Carcinogenic Potency Database (CPDB), 2022):
Several values for one entry are separate records, joined by “and”; a condition that tells them apart may be missing. Equal entries are not always repeated. Activity calls are given as the source filed them. No rule for the calls is given here.

System: rodent lifetime carcinogenesis bioassay, tumor incidence TD50
Experiment: chronic cancer bioassays in animals – CPDB, compiled studies (AID 1745844)

O=NO
TD50 (hamster, strain Syrian Golden, females, in feed, site: any site (literature study), lesion: one or several types, types not named, dosed 97 weeks, study length 97 weeks): 477 mg/kg/day
TD50 (mouse, strain B6C3F1, females, in drinking water, site: any site (literature study), lesion: several types, types named in the paper, dosed 104 weeks, study length 104 weeks): 459 mg/kg/day
TD50 (mouse, strain B6C3F1, females, in drinking water, site: forestomach, lesion: squamous-cell carcinoma + squamous-cell papilloma, dosed 104 weeks, study length 104 weeks): 1610 mg/kg/day
TD50 (mouse, strain B6C3F1, females, in drinking water, site: lung, lesion: alveolar/bronchiolar adenoma + alveolar/bronchiolar carcinoma, dosed 104 weeks, study length 104 weeks): 843 mg/kg/day
TD50 (mouse, strain B6C3F1, males, in drinking water, site: any site (literature study), lesion: several types, types named in the paper, dosed 104 weeks, study length 104 weeks): 9190 mg/kg/day (inactive)
TD50 (mouse, strain B6C3F1, males, in drinking water, site: lung, lesion: alveolar/bronchiolar adenoma + alveolar/bronchiolar carcinoma, dosed 104 weeks, study length 104 weeks): 990 mg/kg/day
carcinogen call (mouse, strain C57BL/6, females, in drinking water, site: liver, lesion: several types, types named in the paper, dosed 117 weeks, study length 126 weeks): negative (inactive)
TD50 (mouse, strain C57BL/6, females, in drinking water, site: lung, lesion: one or several types, types not named, dosed 117 weeks, study length 126 weeks): 5200 mg/kg/day (inactive)
carcinogen call (mouse, strain C57BL/6, females, in feed, site: any site (literature study), lesion: several types, types named in the paper, dosed 52 weeks, study length 69 weeks): negative (inactive)
carcinogen call (mouse, strain C57BL/6, females, in feed, site: liver, lesion: hepatocellular carcinoma, dosed 52 weeks, study length 69 weeks): negative (inactive)
carcinogen call (mouse, strain C57BL/6, females, in feed, site: lung, lesion: adenoma, dosed 52 weeks, study length 69 weeks): negative (inactive)
TD50 (mouse, strain C57BL/6, males, in feed, site: any site (literature study), lesion: several types, types named in the paper, dosed 52 weeks, study length 69 weeks): 1210 mg/kg/day (inactive)
carcinogen call (mouse, strain C57BL/6, males, in feed, site: liver, lesion: hepatocellular carcinoma, dosed 52 weeks, study length 69 weeks): negative (inactive)
TD50 (mouse, strain C57BL/6, males, in feed, site: lung, lesion: adenoma, dosed 52 weeks, study length 69 weeks): 1610 mg/kg/day (inactive)
carcinogen call (mouse, strain ICR/Jcl, females, in drinking water, site: any site (literature study), lesion: several types, types named in the paper, dosed 109 weeks, study length 109 weeks): negative (inactive)
carcinogen call (mouse, strain ICR/Jcl, females, in drinking water, site: liver, lesion: one or several types, types not named, dosed 109 weeks, study length 109 weeks): negative (inactive)
TD50 (mouse, strain ICR/Jcl, females, in drinking water, site: lung, lesion: one or several types, types not named, dosed 109 weeks, study length 109 weeks): 7230 mg/kg/day (inactive)
carcinogen call (mouse, strain ICR/Jcl, males, in drinking water, site: any site (literature study), lesion: several types, types named in the paper, dosed 109 weeks, study length 109 weeks): negative (inactive)
TD50 (mouse, strain ICR/Jcl, males, in drinking water, site: liver, lesion: one or several types, types not named, dosed 109 weeks, study length 109 weeks): 25000 mg/kg/day (inactive)
TD50 (mouse, strain ICR/Jcl, males, in drinking water, site: lung, lesion: one or several types, types not named, dosed 109 weeks, study length 109 weeks): 16300 mg/kg/day (inactive)
TD50 (mouse, strain Swiss CD-1, females, in drinking water, site: liver, lesion: hepatocellular tumor, dosed 34 weeks, study length 125 weeks): 744 mg/kg/day (inactive)
carcinogen call (mouse, strain Swiss CD-1, females, in drinking water, site: lung, lesion: one or several types, types not named, dosed 34 weeks, study length 125 weeks): negative (inactive)
carcinogen call (mouse, strain Swiss CD-1, males, in drinking water, site: liver, lesion: hepatocellular tumor, dosed 34 weeks, study length 115 weeks): negative (inactive)
TD50 (mouse, strain Swiss CD-1, males, in drinking water, site: lung, lesion: one or several types, types not named, dosed 34 weeks, study length 115 weeks): 103 mg/kg/day (inactive)
carcinogen call (mouse, strain VM, females, in drinking water, site: brain, lesion: glioma, dosed 134 weeks, study length 134 weeks): negative (inactive)
carcinogen call (mouse, strain VM, males, in drinking water, site: brain, lesion: glioma, dosed 113 weeks, study length 113 weeks): negative (inactive)
TD50 (rat, strain Charles River CD (Sprague-Dawley), both sexes, in feed, site: all sites, lesion: malignant lymphoma, dosed 123 weeks, study length 123 weeks): 539 mg/kg/day
TD50 (rat, strain Charles River CD (Sprague-Dawley), both sexes, in feed, site: liver, lesion: angiosarcoma, dosed 123 weeks, study length 123 weeks): 5840 mg/kg/day
TD50 (rat, strain Charles River CD (Sprague-Dawley), both sexes, in feed, site: spleen, lesion: lymphoma, dosed 123 weeks, study length 123 weeks): 601 mg/kg/day
carcinogen call (rat, strain F344/DuCrj, males, in drinking water, site: forestomach, lesion: one or several types, types not named, dosed 51 weeks, study length 51 weeks): negative (inactive)
carcinogen call (rat, strain F344/DuCrj, males, in drinking water, site: stomach, glandular, lesion: one or several types, types not named, dosed 51 weeks, study length 51 weeks): negative (inactive)
TD50 (rat, strain Fischer 344, females, in drinking water, site: adrenal gland, lesion: medullary tumor, dosed 104 weeks, study length 128 weeks): 163 mg/kg/day
TD50 (rat, strain Fischer 344, females, in drinking water, site: any site (literature study), lesion: several types, types named in the paper, dosed 104 weeks, study length 104 weeks): 74400 mg/kg/day (inactive)
carcinogen call (rat, strain Fischer 344, females, in drinking water, site: any site (literature study), lesion: several types, types named in the paper, dosed 104 weeks, study length 120 weeks): negative (inactive)
TD50 (rat, strain Fischer 344, females, in drinking water, site: liver, lesion: hepatocellular carcinoma, dosed 104 weeks, study length 128 weeks): 1550 mg/kg/day
TD50 (rat, strain Fischer 344, females, in drinking water, site: liver, lesion: neoplastic nodule, dosed 104 weeks, study length 128 weeks): 185 mg/kg/day
carcinogen call (rat, strain Fischer 344, females, in drinking water, site: liver, lesion: several types, types named in the paper, dosed 104 weeks, study length 120 weeks): negative (inactive)
TD50 (rat, strain Fischer 344, females, in drinking water, site: liver, lesion: several types, types named in the paper, dosed 104 weeks, study length 128 weeks): 153 mg/kg/day
TD50 (rat, strain Fischer 344, females, in drinking water, site: mammary tissue, wider than the gland, lesion: one or several types, types not named, dosed 104 weeks, study length 128 weeks): 115 mg/kg/day
TD50 (rat, strain Fischer 344, females, in drinking water, site: thyroid gland, lesion: carcinoma, dosed 104 weeks, study length 128 weeks): 163 mg/kg/day
TD50 (rat, strain Fischer 344, females, in drinking water, site: uterus, lesion: polyp, dosed 104 weeks, study length 128 weeks): 218 mg/kg/day
carcinogen call (rat, strain Fischer 344, females, in feed, site: any site (literature study), lesion: several types, types named in the paper, dosed 52 weeks, study length 69 weeks): negative (inactive)
TD50 (rat, strain Fischer 344, females, in feed, site: liver, lesion: carcinoma, dosed 104 weeks, study length 130 weeks): 470 mg/kg/day
TD50 (rat, strain Fischer 344, females, in feed, site: liver, lesion: hepatocellular carcinoma, dosed 104 weeks, study length 128 weeks): 629 mg/kg/day
TD50 (rat, strain Fischer 344, females, in feed, site: liver, lesion: hepatocellular carcinoma, dosed 104 weeks, study length 130 weeks): 516 mg/kg/day
TD50 (rat, strain Fischer 344, females, in feed, site: liver, lesion: neoplastic nodule, dosed 104 weeks, study length 128 weeks): 164 mg/kg/day
TD50 (rat, strain Fischer 344, females, in feed, site: liver, lesion: neoplastic nodule, dosed 104 weeks, study length 130 weeks): 199 mg/kg/day and 218 mg/kg/day
carcinogen call (rat, strain Fischer 344, females, in feed, site: liver, lesion: one or several types, types not named, dosed 52 weeks, study length 69 weeks): negative (inactive)
TD50 (rat, strain Fischer 344, females, in feed, site: liver, lesion: several types, types named in the paper, dosed 104 weeks, study length 128 weeks): 141 mg/kg/day
TD50 (rat, strain Fischer 344, females, in feed, site: liver, lesion: several types, types named in the paper, dosed 104 weeks, study length 130 weeks): 124 mg/kg/day and 136 mg/kg/day
carcinogen call (rat, strain Fischer 344, males, in drinking water, site: any site (literature study), lesion: several types, types named in the paper, dosed 104 weeks, study length 120 weeks): negative (inactive)
TD50 (rat, strain Fischer 344, males, in drinking water, site: liver, lesion: hepatocellular adenoma + hepatoblastoma + hepatocellular carcinoma, dosed 104 weeks, study length 104 weeks): 6550 mg/kg/day
TD50 (rat, strain Fischer 344, males, in drinking water, site: liver, lesion: hepatocellular carcinoma, dosed 104 weeks, study length 128 weeks): 1040 mg/kg/day
TD50 (rat, strain Fischer 344, males, in drinking water, site: liver, lesion: several types, types named in the paper, dosed 104 weeks, study length 120 weeks): 1310 mg/kg/day (inactive)
TD50 (rat, strain Fischer 344, males, in drinking water, site: liver, lesion: several types, types named in the paper, dosed 104 weeks, study length 128 weeks): 946 mg/kg/day
TD50 (rat, strain Fischer 344, males, in drinking water, site: skin, lesion: fibroma, dosed 104 weeks, study length 104 weeks): 667 mg/kg/day (inactive)
carcinogen call (rat, strain Fischer 344, males, in feed, site: all sites, lesion: granulocytic leukemia, dosed 115 weeks, study length 115 weeks): negative (inactive)
carcinogen call (rat, strain Fischer 344, males, in feed, site: all sites, lesion: mononuclear-cell leukemia, dosed 115 weeks, study length 115 weeks): negative (inactive)
carcinogen call (rat, strain Fischer 344, males, in feed, site: any site (literature study), lesion: one or several types, types not named, dosed 115 weeks, study length 115 weeks): negative (inactive)
carcinogen call (rat, strain Fischer 344, males, in feed, site: any site (literature study), lesion: several types, types named in the paper, dosed 52 weeks, study length 69 weeks): negative (inactive)
TD50 (rat, strain Fischer 344, males, in feed, site: liver, lesion: neoplastic nodule, dosed 104 weeks, study length 130 weeks): 467 mg/kg/day and 674 mg/kg/day
carcinogen call (rat, strain Fischer 344, males, in feed, site: liver, lesion: one or several types, types not named, dosed 52 weeks, study length 69 weeks): negative (inactive)
TD50 (rat, strain Fischer 344, males, in feed, site: liver, lesion: several types, types named in the paper, dosed 104 weeks, study length 130 weeks): 445 mg/kg/day and 641 mg/kg/day
carcinogen call (rat, strain Fischer 344, males, in feed, site: several sites, sites named in the paper, lesion: lymphoma, dosed 115 weeks, study length 115 weeks): negative (inactive)
carcinogen call (rat, strain Fischer 344, males, in feed, site: testis, lesion: interstitial-cell tumor, dosed 115 weeks, study length 115 weeks): negative (inactive)
carcinogen call (rat, strain MRC, females, in drinking water, site: any site (literature study), lesion: one or several types, types not named, dosed 67 weeks, study length 122 weeks): negative (inactive)
TD50 (rat, strain MRC, females, in drinking water, site: any site (literature study), lesion: several types, types named in the paper, dosed 84 weeks, study length 104 weeks): 57.3 mg/kg/day (inactive)
carcinogen call (rat, strain MRC, females, in drinking water, site: liver, lesion: one or several types, types not named, dosed 67 weeks, study length 122 weeks): negative (inactive)
carcinogen call (rat, strain MRC, males, in drinking water, site: any site (literature study), lesion: one or several types, types not named, dosed 67 weeks, study length 122 weeks): negative (inactive)
TD50 (rat, strain MRC, males, in drinking water, site: any site (literature study), lesion: several types, types named in the paper, dosed 84 weeks, study length 104 weeks): 61.9 mg/kg/day (inactive)
carcinogen call (rat, strain MRC, males, in drinking water, site: liver, lesion: one or several types, types not named, dosed 67 weeks, study length 122 weeks): negative (inactive)
carcinogen call (rat, strain Wistar, males, in drinking water, site: liver, lesion: hepatocellular carcinoma, dosed 94 weeks, study length 94 weeks): negative (inactive)
carcinogen call (rat, strain Wistar, males, in drinking water, site: liver, lesion: one or several types, types not named, dosed 102 weeks, study length 102 weeks): negative (inactive)
carcinogen call (rat, strain Wistar, males, in drinking water, site: lung, lesion: one or several types, types not named, dosed 94 weeks, study length 94 weeks): negative (inactive)
carcinogen call (rat, strain Wistar, males, in drinking water, site: nasal cavity, lesion: one or several types, types not named, dosed 94 weeks, study length 94 weeks): negative (inactive)
TD50 (rat, strain Wistar, males, in feed, site: liver, lesion: several types, types named in the paper, dosed 92 weeks, study length 92 weeks): 155 mg/kg/day
